# Reference: US9670173B2, “Dicarboxylic acid compound” (DAIICHI SANKYO COMPANY, LIMITED, priority 2013, dated 2017)
# System: male SD rats
# Experiment: Rat 33P phosphate oral challenge test (intestinal phosphate absorption suppression test)
# Format: in vivo
# Details: fasted, 30 mg/kg forcible oral administration, 33P phosphate solution given 30 min later, serum radioactivity AUC0-60min versus control group
# Description: (Test Example) Rat ^33P Phosphate Oral Challenge Test (Intestinal Phosphate Absorption Suppression Test)
# Using male SD rats (5-7 week old) that had been fasted on the previous day, the compound described in Examples was suspended or dissolved in a solvent such as 0.5% methyl cellulose (3-6 mg/mL), and the thus obtained solution was administered to each rat at a dose of 30 mg/kg by a forcible oral administration. On the other hand, regarding a control group, the solvent was administered to each rat at a dose of 5 mL/kg. Thirty minutes after the administration, a ^33P phosphate solution (8.3 mM NaH2PO4, 0.35 MBq/mL) was administered to the rats at a dose of 7.2 mL/kg by a forcible oral administration. Then, 15, 30, 60, and 120 minutes after the administration, blood was collected from the jugular vein of each rat under anesthesia with isoflurane. The radioactivity in 50 μL of serum was measured using a liquid scintillation counter, and the AUC0-60min was then calculated from the radioactivity value. The obtained value was defined as an amount of phosphate absorbed. The phosphate absorption-inhibiting activity of the compound was calculated according to the following expression. Phosphate absorption-inhibiting activity (%)=[[…]the amount of phosphate absorbed of the control group]×100
row,SMILES,Phosphorus absorption-inhibiting activity (%)
1,"CCN([C@H]1CC[C@H](C(=O)O)CC1)S(=O)(=O)c1cccc(C(=O)Nc2ccc(N3CCCCC3)cc2C(=O)Nc2ccc(CCc3ccc(C(=O)O)cc3)cc2)c1 [Example 12, Dipotassium 4-[2-(4-{[2-({3-[(trans-4-carboxylatocyclohexyl)(ethyl)sulfamoyl]benzoyl}amino)-5-(piperidin-1-yl)benzoyl]amino}phenyl)ethyl]benzoate]",79
2,"O=C([O-])c1ccc(CCc2ccc(NC(=O)c3cc(N4CCCCC4)ccc3NC(=O)c3cccc(S(=O)(=O)N(C4CC4)[C@H]4CC[C@H](C(=O)[O-])CC4)c3)cc2)cc1.[K+].[K+] [Example 27, Dipotassium 4-[2-(4-{[2-({3-[(trans-4-carboxylatocyclohexyl)(cyclopropyl)sulfamoyl]benzoyl}amino)-5-(piperidin-1-yl)benzoyl]amino}phenyl)ethyl]benzoate]",57
3,"CCN([C@H]1CC[C@H](C(=O)O)CC1)S(=O)(=O)c1cccc(C(=O)Nc2ccc(Br)cc2C(=O)Nc2ccc(CCc3ccc(C(=O)O)cc3)cc2)c1 [Example 4, Dipotassium 4-[2-(4-{[5-bromo-2-({3-[(trans-4-carboxylatocyclohexyl)(ethyl)sulfamoyl]benzoyl}amino)benzoyl]amino}phenyl)ethyl]benzoate]",42
4,"CCN([C@H]1CC[C@@H](C(=O)O)CC1)S(=O)(=O)c1cccc(C(=O)Nc2ccc(N3CCCCC3)cc2C(=O)Nc2ccc(CCc3ccc(C(=O)O)cc3)cc2)c1 [Example 26, Dipotassium 4-[2-(4-{[2-({3-[(cis-4-carboxylatocyclohexyl)(ethyl)sulfamoyl]benzoyl}amino)-5-(piperidin-1-yl)benzoyl]amino}phenyl)ethyl]benzoate]",60
5,"CCN([C@H]1CC[C@H](C(=O)[O-])CC1)S(=O)(=O)c1cccc(C(=O)Nc2ccc(N3CCCCC3)cc2C(=O)Nc2ccc(CCc3ccc(C(=O)[O-])cc3)cc2)c1.[Na+].[Na+] [Example 28, Disodium 4-[2-(4-{[2-({3-[(trans-4-carboxylatocyclohexyl)(ethyl)sulfamoyl]benzoyl}amino)-5-(piperidin-1-yl)benzoyl]amino}phenyl)ethyl]benzoate]",60
6,"CCN([C@H]1CC[C@H](C(=O)[O-])CC1)S(=O)(=O)c1cccc(C(=O)Nc2ccc(OCC3CC3)cc2C(=O)Nc2ccc(CCc3ccc(C(=O)[O-])cc3)cc2)c1.[K+].[K+] [Example 15, Dipotassium 4-[2-(4-{[2-({3-[(trans-4-carboxylatocyclohexyl)(ethyl)sulfamoyl]benzoyl}amino)-5-(cyclopropylmethoxy)benzoyl]amino}phenyl)ethyl]benzoate]",82
7,"CCN([C@H]1CC[C@H](C(=O)O)CC1)S(=O)(=O)c1cccc(C(=O)Nc2ccc(OCC3CC3)cc2C(=O)Nc2ccc(CCc3ccc(C(=O)O)cc3)cc2)c1 [Example 30, Disodium 4-[2-(4-{[2-({3-[(trans-4-carboxylatocyclohexyl)(ethyl)sulfamoyl]benzoyl}amino)-5-(cyclopropylmethoxy)benzoyl]amino}phenyl)ethyl]benzoate]",69
8,"CCN(CC)c1ccc(NC(=O)c2cccc(S(=O)(=O)N(CC)[C@H]3CC[C@H](C(=O)[O-])CC3)c2)c(C(=O)Nc2ccc(CCc3ccc(C(=O)[O-])cc3)cc2)c1.[Na+].[Na+] [Example 29, Disodium 4-[2-(4-{[2-({3-[(trans-4-carboxylatocyclohexyl)(ethyl)sulfamoyl]benzoyl}amino)-5-(diethylamino)benzoyl]amino}phenyl)ethyl]benzoate]",72
9,"CCN([C@H]1CC[C@H](C(=O)[O-])CC1)S(=O)(=O)c1cccc(C(=O)Nc2ccc(N3CCCC3)cc2C(=O)Nc2ccc(CCc3ccc(C(=O)[O-])cc3)cc2)c1.[K+].[K+] [Example 10, Dipotassium 4-[2-(4-{[2-({3-[(trans-4-carboxylatocyclohexyl)(ethyl)sulfamoyl]benzoyl}amino)-5-(pyrrolidin-1-yl)benzoyl]amino}phenyl)ethyl]benzoate]",53
10,"CCN(CC)c1ccc(NC(=O)c2cccc(S(=O)(=O)N(CC)[C@H]3CC[C@H](C(=O)O)CC3)c2)c(C(=O)Nc2ccc(CCc3ccc(C(=O)O)cc3)cc2)c1 [Example 14, Dipotassium 4-[2-(4-{[2-({3-[(trans-4-carboxylatocyclohexyl)(ethyl)sulfamoyl]benzoyl}amino)-5-(diethylamino)benzoyl]amino}phenyl)ethyl]benzoate]",76
